# Results as given in US20230200390A1, “SELECTIVE HERBICIDES BASED ON SUBSTITUTED ISOXAZOLIN CARBOXAMIDES AND MEFENPYR-DIETHYL” (BAYER AKTIENGESELLSCHAFT, priority 2020, published 2023).
# Experiments:
# Type in all cases: in vivo
# [1] = tested on: spring wheat, TRZAS Triso; test: Seed treatment with safener; post-emergence herbicide, crop damage; conditions: for HER effect + SAF [%] (crop damage) / Reduction [%] / Reduction [Difference]: mefenpyr-diethyl 0.5 g a.i./kg seed; for HER effect [%] (crop damage, herbicide without safener): no safener
# Excerpt: (§1) For safener seed treatment trials, sufficient seed amounts of the respective crops (spring wheat (TRZAS); spring barley (HORVS)) were weighed into screw cap glass bottles with a minimum volume trice of the seeds.
# (§2) As a first step, specified safeners formulated as wettable powder (WP) or wettable granules (WG) were weighed out for the required dosages (g a.i./kg seed), corresponding to the seed amounts. The safener amounts were mixed with a coloured slurry blind formulation type, prediluted with milk at 3.5% fat rate (25 mgs slurry formulation plus 2 ml milk per 10 grams of seed). A tube roller was used for coating. The solutions were gradually pipetted each on the rotating seeds followed by coating for min. 3 hours until all liquid had been soaked up by the seeds. Thereafter, the coated seeds were put flat on open trays for drying over night at room temperature.
# (§3) Treated seeds were then placed into pots (7 cm diameter) on the surface of sandy loam, pressed down, flat covered with additional soil and finally covered with sandy soil, also pressed down, watered, and kept under good growth conditions in a greenhouse, until the plants had reached 2-leaf-stage (BBCH 12).
# (§4) At that stage, post-emergence application of the specified herbicides was done on:
# (§5) a) pot sets containing plants with safener-coated seeds as described above,
# (§6) b) as a reference, pot sets of plants without seed treatment.
# (§7) The herbicides were formulated as wettable powder (WP). Equivalent to the spray area, compound amounts were weighed out and diluted related to the water application rate (300 l/ha) to an aqueous suspension plus additive (1 l/ha MERO). Dosage related equivalents were conventionally sprayed on trays with the potted plants.
# (§8) After application, the test plants were kept under good growth conditions in a greenhouse.
# (§9) Assessment timings were 10 and 21 days after treatment (DAT) with the herbicide, by visual scoring of the crop damage in % (comparison of untreated with treated plants, either sprayed only with herbicide or with herbicide on plants with treated seeds).
# [2] = tested on: spring barley, HORVS Montoya; test: as above; conditions: for HER effect + SAF / Reduction [%] / Reduction [Difference]: mefenpyr-diethyl 0.5 g a.i./kg seed
# Excerpt: as §1, §2, §3, §4, §5, §6, §7, §8, §9
# [3] = tested on: spring barley, HORVS Montoya; test: Tank-mix; post-emergence: crop damage by herbicide with/without safener mefenpyr-diethyl
# Description: (§10) Seeds of crops (spring wheat, TRZAS; spring barley, HORVS; maize, ZEAMA) were placed in sandy loam soil in peat pots, covered with soil and cultivated in a greenhouse under good growth conditions. Two to three weeks after sowing, the test plants were treated at the 1 to 3-leaf stage. The herbicide/safener active compound combinations according to the invention, formulated as wettable powders or emulsion concentrates, and, in parallel tests, the correspondingly formulated individual active compounds were sprayed onto the green parts of the plants in various dosages using an amount of water of 300 l/ha (converted).
# (§11) The pots were returned under good growing conditions in a glasshouse and a visual assessment of herbicidal effects was made at intervals from 1 to 3 weeks after herbicide application (DAT=days after treatment). Assessment was on a percentage basis in comparison with untreated control plants (0%=no injury, 100%=complete kill).
# [4] = tested on: spring wheat, TRZAS Triso; test: as above; conditions: 10 DAT
# Description: as §10, §11
# [5] = HER 8 g a.i./ha post-emergence, 21 DAT
# [6] = HER 32 g a.i./ha post-emergence, 21 DAT
# [7] = herbicide alone 8 g a.i./ha post-emergence, 21 DAT
# [8] = HER 8 g a.i./ha + mefenpyr-diethyl 100 g a.i./ha, 21 DAT
# [9] = HER 4 g a.i./ha + mefenpyr-diethyl 50 g a.i./ha
# [10] = HER 16 g a.i./ha + mefenpyr-diethyl 100 g a.i./ha
# [11] = HER 4 g a.i./ha + mefenpyr-diethyl 50 g a.i./ha, 10 DAT
# [12] = HER 16 g a.i./ha + mefenpyr-diethyl 100 g a.i./ha, 10 DAT
# [13] = HER 32 g a.i./ha post-emergence, 10 DAT
# [14] = HER 8 g a.i./ha + mefenpyr-diethyl 50 g a.i./ha, 10 DAT
# [15] = HER 32 g a.i./ha + mefenpyr-diethyl 100 g a.i./ha, 10 DAT
structure (smiles),measurement,setting,value
COC(=O)C1C=CC(NC(=O)C2(C)CC(c3cc(Cl)cc(C#N)c3)=NO2)C1 (mixture of isomers) [Example 1.23],HER effect + SAF [%] (crop damage),"[1]; 21 DAT, HER dose 8 g a.i./ha",0%
same,Reduction [%],"[1]; 21 DAT, HER dose 8 g a.i./ha",100%
same,Reduction [Difference],"[1]; 21 DAT, HER dose 8 g a.i./ha",20
same,"HER effect [%] (crop damage, herbicide without safener)","[1]; 21 DAT, HER dose 8 g a.i./ha",20%
same,HER effect + SAF,[2]; [5],0%
same,Reduction [%],[2]; [5],100%
same,Reduction [Difference],[2]; [5],20
same,HER effect + SAF,[2]; [6],10%
same,Reduction [%],[2]; [6],67%
same,Reduction [Difference],[2]; [6],20
same,HER effect,[2]; [7],20%
same,HER effect,"[2]; herbicide alone 32 g a.i./ha post-emergence, 21 DAT",30%
C=CC1(C(=O)NC2CC=C(C(=O)OC)C2)CC(c2cc(F)cc(F)c2)=NO1 (mixture of isomers) [Example 1.60],HER effect + SAF [%] (crop damage),"[1]; 21 DAT, HER dose 8 g a.i./ha",0%
same,Reduction [%],"[1]; 21 DAT, HER dose 8 g a.i./ha",100%
same,Reduction [Difference],"[1]; 21 DAT, HER dose 8 g a.i./ha",93
same,"HER effect [%] (crop damage, herbicide without safener)","[1]; 21 DAT, HER dose 8 g a.i./ha",93%
same,HER effect + SAF [%] (crop damage),"[1]; 21 DAT, HER dose 32 g a.i./ha",10%
same,Reduction [%],"[1]; 21 DAT, HER dose 32 g a.i./ha",89%
same,Reduction [Difference],"[1]; 21 DAT, HER dose 32 g a.i./ha",85
same,"HER effect [%] (crop damage, herbicide without safener)","[1]; 21 DAT, HER dose 32 g a.i./ha",95%
same,HER effect + SAF,[2]; [5],10%
same,Reduction [%],[2]; [5],88%
same,Reduction [Difference],[2]; [5],70
same,HER effect,[2]; [7],80%
same,HER effect + SAF,[3]; [8],20%
same,Reduction [%],[3]; [8],75%
same,Reduction [Difference],[3]; [8],60
same,HER effect,"[3]; herbicide alone 8 g a.i./ha, 21 DAT",80%
CCOC(=O)C1CC(NC(=O)C2(C)CC(c3cccc(F)c3)=NO2)CO1 (mixture of isomers) [Example 1.67],HER effect + SAF [%] (crop damage),"[1]; 10 DAT, HER dose 4 g a.i./ha",10%
same,Reduction [%],"[1]; 10 DAT, HER dose 4 g a.i./ha",80%
same,Reduction [Difference],"[1]; 10 DAT, HER dose 4 g a.i./ha",40
same,"HER effect [%] (crop damage, herbicide without safener)","[1]; 10 DAT, HER dose 4 g a.i./ha",50%
same,HER effect + SAF [%] (crop damage),"[1]; 10 DAT, HER dose 16 g a.i./ha",20%
same,Reduction [%],"[1]; 10 DAT, HER dose 16 g a.i./ha",71%
same,Reduction [Difference],"[1]; 10 DAT, HER dose 16 g a.i./ha",50
same,"HER effect [%] (crop damage, herbicide without safener)","[1]; 10 DAT, HER dose 16 g a.i./ha",70%
same,HER effect + SAF,[4]; [9],10%
same,Reduction [%],[4]; [9],80%
same,Reduction [Difference],[4]; [9],40
same,HER effect + SAF,[4]; [10],20%
same,Reduction [%],[4]; [10],71%
same,Reduction [Difference],[4]; [10],50
same,HER effect,[4]; herbicide alone 4 g a.i./ha,50%
same,HER effect,[4]; herbicide alone 16 g a.i./ha,70%
same,HER effect + SAF,[3]; [11],0%
same,Reduction [%],[3]; [11],100%
same,Reduction [Difference],[3]; [11],30
same,HER effect + SAF,[3]; [12],0%
same,Reduction [%],[3]; [12],100%
same,Reduction [Difference],[3]; [12],60
same,HER effect,"[3]; herbicide alone 4 g a.i./ha, 10 DAT",30%
same,HER effect,"[3]; herbicide alone 16 g a.i./ha, 10 DAT",60%
C=CCOC(=O)C1CC(NC(=O)C2(C=C)CC(c3cc(C)cc(F)c3)=NO2)CO1 (mixture of isomers) [Example 1.85],HER effect + SAF,[2]; [13],30%
same,Reduction [%],[2]; [13],63%
same,Reduction [Difference],[2]; [13],50
same,HER effect,"[2]; herbicide alone 32 g a.i./ha post-emergence, 10 DAT",80%
same,HER effect + SAF,[3]; [14],0%
same,Reduction [%],[3]; [14],100%
same,Reduction [Difference],[3]; [14],20
same,HER effect + SAF,[3]; [15],20%
same,Reduction [%],[3]; [15],75%
same,Reduction [Difference],[3]; [15],60
same,HER effect,"[3]; herbicide alone 8 g a.i./ha, 10 DAT",20%
same,HER effect,"[3]; herbicide alone 32 g a.i./ha, 10 DAT",80%
